Measured values as given in patent EP0126012B1, “Pharmaceutical compositions containing symmetrical disulfides” (SANOFI S.A., priority 1983, dated 1984).

What was measured:
[1] = tested on: globules rouges des drépanocytaires; test: Inhibition of sickling of human erythrocytes from sickle-cell patients under deoxygenation (Nomarski microscopy); assay type: cell-based, humains; details: inhibition de la falciformation des érythrocytes; incubation 1 h at 37°C, pH 7,40, with product; molar ratio produit/hémoglobine initially 0,5 to 20; ratio used for the table values not given
Method: L'inhibition de la falciformation des érythrocytes humains a été évaluée selon la méthode consistant à laver et incuber dans un tampon salin (pH 7,40 - 0,15 M), les globules rouges des drépanocytaires pendant une heure à 37°C dans un bainmarie sous agitation circulaire en présence du produit ci-dessus à différentes concentrations. Dans cette opération le rapport molaire produit/hémoglobine est testé initialement dans l'intervalle allant de 0,5 à 20. En fonction des résultats obtenus, ce rapport est modifié. A la fin de l'incubation, l'excès de produit est enlevé par lavage. La suspension cellulaire ajustée à un hématocrite de 5 % est transférée dans un Erlenmeyer et incubée à 37°C sous un courant d'un mélange humidifié d'azote et d'oxygène. La concentration d'oxygène est réglée par une pompe à mélange gazeux. Le gaz effluent est transféré dans un autre tube contenant du formaldéhyde. A la fin de l'incubation, la suspension cellulaire est transférée dans le formaldéhyde par simple retournement de la fiole.
La proportion des cellules déformées et de celles ayant les caractéristiques de drépanocytes (présentant deux prolongements filiformes) est évaluée à l'aide d'un microscope ayant une optique interférentielle de NOMARSKY. L'inhibition de la falciformation a été calculée selon la formule suivante: • % cellules falciformées - % cellules falciformées en témoins présence de la drogue % cellules falciformées du témoin

falciformation = details: literature (Inserm Symposium 1979); cited from earlier work

Structure (SMILES): c1c[nH]c(SSc2ncc[nH]2)n1 [2,2'-dithiodi(1H-imidazole)]
- % inhibition [1]: 80%

Structure (SMILES): C1CSC(SSC2=NCCS2)=N1 [2,2'-dithiodi(4,5-dihydrothiazole)]
- % inhibition [1]: 90%

Structure (SMILES): c1cnc(SSc2ncccn2)nc1 [2,2'-dithiodipyrimidine]
- % inhibition [1]: 50%

Structure (SMILES): c1nc(SSc2nc[nH]n2)n[nH]1 [3,3'-dithiodi(1H-1,2,4-triazole)]
- % inhibition [1]: 100%

Structure (SMILES): NCCSSCCN [cystamine, reference compound]
- % inhibition [1]: 33%
- inhibition de la falciformation (falciformation): particulièrement active

Structure (SMILES): NC(=O)CSSCC(N)=O [dithio-diacétamide]
- % inhibition [1]: 80%

Structure (SMILES): CN(C)C(=O)CSSCC(=O)N(C)C [dithiodi(N,N-diméthyl)acétamide]
- % inhibition [1]: 95%

Structure (SMILES): N=C(N)SSC(=N)N [dithiodiformamidine]
- % inhibition [1]: 100%
